Assay results taken from ChEMBL document CHEMBL1126148, “Synthesis of halogenated trimetoquinol derivatives and evaluation of their beta-agonist and thromboxane A2 (TXA2) antagonist activities” (J Med Chem, 1992).

What was measured:
[1] = target: T1, Beta-1 adrenergic receptor (Cavia porcellus, UniProt B0FL73); test: (§1) Inhibitory activity against Beta-1 adrenergic receptor in guinea pig atria after treatment with the compound
[2] = target: T2, Beta-2 adrenergic receptor (Cavia porcellus, UniProt Q8K4Z4); test: Agonist activity at Beta-2 adrenergic receptor in guinea pig trachea after treatment with the compound
T2 sequence (Q8K4Z4 whole entry): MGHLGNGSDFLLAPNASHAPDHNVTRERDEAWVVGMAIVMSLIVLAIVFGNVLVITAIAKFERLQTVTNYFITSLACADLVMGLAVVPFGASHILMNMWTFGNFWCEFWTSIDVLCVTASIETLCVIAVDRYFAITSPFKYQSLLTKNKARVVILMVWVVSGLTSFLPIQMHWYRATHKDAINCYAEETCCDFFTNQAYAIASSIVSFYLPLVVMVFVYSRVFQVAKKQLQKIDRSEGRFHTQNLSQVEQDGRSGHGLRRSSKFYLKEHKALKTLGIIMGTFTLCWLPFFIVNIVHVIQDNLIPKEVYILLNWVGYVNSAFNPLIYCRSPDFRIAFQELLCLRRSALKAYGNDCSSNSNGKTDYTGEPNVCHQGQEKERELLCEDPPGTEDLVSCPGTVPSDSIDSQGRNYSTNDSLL

[3] = target: Beta-1 adrenergic receptor (Cavia porcellus) (UniProt B0FL73); test: Maximum response of drug relative to the response of 10e-5 isoproterenol after treatment with the compound; format: functional
Beta-1 adrenergic receptor (Cavia porcellus), sequence (B0FL73 1-467): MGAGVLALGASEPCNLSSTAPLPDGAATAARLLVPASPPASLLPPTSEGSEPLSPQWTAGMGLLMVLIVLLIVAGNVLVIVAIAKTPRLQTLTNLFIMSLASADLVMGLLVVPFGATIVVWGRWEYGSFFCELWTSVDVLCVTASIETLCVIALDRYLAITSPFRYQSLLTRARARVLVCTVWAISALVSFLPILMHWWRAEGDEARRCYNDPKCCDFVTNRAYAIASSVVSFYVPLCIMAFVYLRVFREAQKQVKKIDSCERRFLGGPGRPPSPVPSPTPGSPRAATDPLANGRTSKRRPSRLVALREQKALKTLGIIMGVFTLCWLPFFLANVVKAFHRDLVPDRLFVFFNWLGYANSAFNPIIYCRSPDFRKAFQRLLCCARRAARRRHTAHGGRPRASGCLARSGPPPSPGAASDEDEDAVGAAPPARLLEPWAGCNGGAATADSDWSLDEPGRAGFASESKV

Homo sapiens = species: Homo sapiens; test: (§2) Potency ratio was measured as EC50 (trimetoquinol )/EC50 (drug); format: functional
Rattus norvegicus = species: Rattus norvegicus; test: as §2; format: functional
[4] = target: T3, Thromboxane A2 receptor (Rattus norvegicus) (UniProt P34978); test: (§3) Inhibitory activity against […]-mediated contraction of rat thoracic aorta (Thromboxane A2 tau receptor); format: tissue-based
T3 sequence (whole entry): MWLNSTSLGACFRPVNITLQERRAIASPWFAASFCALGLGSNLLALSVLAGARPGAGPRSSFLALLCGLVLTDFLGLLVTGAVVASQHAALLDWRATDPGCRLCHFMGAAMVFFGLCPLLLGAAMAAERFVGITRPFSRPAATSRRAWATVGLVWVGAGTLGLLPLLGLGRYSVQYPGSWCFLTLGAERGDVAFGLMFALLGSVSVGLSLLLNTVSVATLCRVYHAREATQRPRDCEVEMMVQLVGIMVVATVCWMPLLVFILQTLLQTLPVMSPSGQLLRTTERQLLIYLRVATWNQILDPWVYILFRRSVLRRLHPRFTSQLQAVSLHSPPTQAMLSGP

[5] = target: T1, Beta-1 adrenergic receptor; test: Binding affinity against Beta-1 adrenergic receptor in guinea pig left ventricle
[6] = target: T2, Beta-2 adrenergic receptor; test: Binding affinity against Beta-2 adrenergic receptor in guinea pig lung membranes; format: cell membranes, Membrane
[7] = target: T3, Thromboxane A2 receptor (Rattus norvegicus); test: as §3; format: functional, tissue-based
[8] = target: Beta-1 adrenergic receptor (Cavia porcellus) (UniProt B0FL73); test: as §1

T1 sequence (B0FL73 whole entry): as the sequence (B0FL73 1-467) above

| Structure (SMILES) | EC50 [1] [nM] | EC50 [2] [nM] | Intrinsic activity [3] | Potency ratio (Homo sapiens) | Potency ratio (Rattus norvegicus) | pKB [4] | Ki [5] [nM] | Ki [6] [nM] | pKB [7] | pKB [8] |
| --- | --- | --- | --- | --- | --- | --- | --- | --- | --- | --- |
| COc1cc(CC2NCCc3c2cc(O)c(O)c3I)cc(OC)c1OC (configuration not stated) | > 31600 | 2240 | 0.39 | 0.002 | 0.07 | 4.31 |  |  |  |  |
| COc1cc(CC2NCCc3cc(O)c(O)c(I)c32)cc(OC)c1OC (configuration not stated) | 2950 | 1170 | 0.81 | 0.09 | 0.24 | 4.84 |  |  |  |  |
| COc1cc(C[C@@H]2NCCc3cc(O)c(O)cc32)cc(OC)c1OC [TRETOQUINOL] | 174 | 26.3 |  |  |  |  | 87.1 | 49 | 5.46 |  |
| COc1cc(CC2NCCc3c(F)c(O)c(O)c(F)c32)cc(OC)c1OC (configuration not stated) | 501 | 240 |  | 0.00277 | 0.00708 | 3.98 |  |  |  |  |
| COc1cc(CC2NCCc3c2cc(O)c(O)c3C(F)(F)F)cc(OC)c1OC (configuration not stated) |  |  |  | 0.000525 | 0.00372 | 3.7 |  |  |  | 5.32 |
| COc1cc(C[C@H]2NCCc3cc(O)c(O)c(F)c32)cc(OC)c1OC |  |  |  |  |  |  |  |  | 5.63 |  |
